Reference: paper PMC7714403 (JCI Insight, 2020)
Like-named read-outs stand apart in the source and are kept apart here.

Experiments:
Ba/F3 cells GFP+IL3 = assay: MTT viability assay; format: cell-based; settings: Mus musculus, read-out: IC50 viability
Procedure: (§1) Drug treatments were carried out for 72 hours. Details are provided in the Supplemental Methods.

MV4-11 cells [1] = assay: MTT viability assay; format: cell-based; settings: Homo sapiens, read-out: IC50 viability
Procedure: as §1

MOLM13-RES cells = assay: MTT viability assay; format: cell-based; settings: Homo sapiens, read-out: IC50 viability
Procedure: as §1

MOLM13 cells [2] = assay: MTT viability assay; format: cell-based; settings: Homo sapiens, read-out: IC50 viability
Procedure: as §1

MOLM13 cells [3] = assay: MOLM13 viability ± coculture with HS5-GFP MSCs (MTT); format: cell-based; settings: Homo sapiens
Procedure: Drug treatments were carried out for 72 hours. Details are provided in the Supplemental Methods. […]
HS5-GFP human bone marrow stromal cells were plated and cultured for 72 hours to near confluence.
MOLM13 cells were then seeded onto HS5-GFP cells to establish a co-culture. Twenty-four hours later, cells
were treated with increasing concentrations of drug for an additional 72 hours. MOLM13 and HS5-GFP cells
were then separated and MTT assay s were performed for cell viability assessment of each cell population. […]

[4] = tested on: human primary AML samples; assay: CellTiterGlo viability assay, ex vivo; format: cell-based
Procedure: as §1
(§2) Cell viability of primary samples […]
For murine or human primary AML cells, 100,000 cells/well were plated in a 96-well plate and treated with increasing concentrations of drug. Cell viability, via trypan blue, was measured every 24 hours. If the viability fell below 50% or at 72 hours of treatment, whichever came earlier, cell viability of each plate was measured via CellTiter-Glo. Primary human AML cells were obtained from the OSUCCC Leukemia Tissue Bank Shared […]
Primary AML samples were analyzed by targeted gene sequencing of 80 genes, as previously described (1). Samples were pooled and analyzed on a MiSeq system using the Illuminia MiSeq Reagent Kit v3. Ill umina Isis Banded Smith Waterman aligner and hg19 genome were used to align the sequences. Single nucleotide variant (SNV) and indel calling were performed using MuTect and Varscan2. A variant allele fraction (VAF) cut-off of 0.10 was set for reporting mutations. SNV that are reported as pathogenic SNP were considered mutations.
All other SNV needed to be absent from 1000 Genome database, dsSNP137 or dsSNP142. Visual inspection of all variants was carried out using Integrative Genomics Viewer (Broad Institute) . […]

[5] = tested on: Ba/F3 cells expressing FLT3 ITD/D835H; assay: MTT viability assay; format: cell-based; settings: Mus musculus, read-out: IC50 viability
Procedure: as §1

MOLM13 cells [6] = assay: MOLM13 viability ± cytokines (MTT); settings: Homo sapiens
Procedure: Drug treatment effects on cell lines were assessed by MTT assay (Roche Diagnostics), as previously described ([21]). […] Drug treatments were carried out for 72 hours.

MV4-11 cells [7] = assay: CFU assay with IL-3, GM-CSF or FGF2; format: cell-based, human; settings: 7-day MV4-11 CFU assay
Procedure: For human primary CFU assays, cells were cultured in MethoCult H4035 Optimum without EPO (Stemcell Technologies). For mouse primary CFU assays, cells were directly cultured in MethoCult M3231 (Stemcell Technologies) supplemented with 45 ng/mL of murine IL-6 (mIL-6), mIL-3, and mSCF. Both human and mouse primary cells 10,000 cells were plated in duplicate for each drug concentration. For cell line CFU assays, MV4-11 cells were treated with drugs in the presence of 20 ng/mL IL-3, GM-CSF, or FGF2. Cells were plated in MethoCult H4230 (Stemcell Technologies) in duplicates at 250 cells/plate. Plates were placed in a 37°C incubator for 7 or 14 days for human cell lines and for mouse or human primary cells, respectively. Colonies were identified as clusters containing 40 or more cells. For CFU assays using human primary CD34^+ cells, umbilical cord blood was obtained from the OSU Comprehensive Cancer Center (CCC) Leukemia Tissue Bank Shared Resource, and mononuclear cells were isolated by using density gradient centrifugation. CD34^+ cells were purified using the CD34 UltraPure MicroBead Kit (Miltenyi Biotec) according to the manufacturer’s instructions. CFU assay with CD34^+ cells was performed as described above, and the total number of colonies were counted after 7–10 days.

[8] = tested on: Ba/F3 cells expressing FLT3 D835Y; assay: MTT viability assay; format: cell-based; settings: Mus musculus, read-out: IC50 viability
Procedure: as §1

[9] = tested on: Ba/F3 cells expressing FLT3 D835H; assay: MTT viability assay; format: cell-based; settings: Mus musculus, read-out: IC50 viability
Procedure: as §1

[10] = tested on: Ba/F3 cells expressing FLT3-ITD; assay: MTT viability assay; format: cell-based; settings: Mus musculus, read-out: IC50 viability
Procedure: as §1

[11] = tested on: Ba/F3 cells expressing FLT3-ITD/F691L; assay: MTT viability assay; format: cell-based; settings: Mus musculus, BaF3, 72 hours
Procedure: as §1

[12] = tested on: Ba/F3 cells expressing FLT3 ITD/D835Y; assay: MTT viability assay; format: cell-based; settings: Mus musculus, read-out: IC50 viability
Procedure: as §1

[13] = tested on: primary FLT3-ITD/IDH2-R140Q murine leukemia cells; assay: CellTiterGlo viability assay, ex vivo; format: cell-based; settings: Mus musculus, 72 hours
Procedure: as §1, §2
For murine or human primary AML cells, 100,000 cells/well were plated in a 96-well plate and treated with increasing concentrations of drug. Cell viability, via trypan blue, was measured every 24 hours. If the viability fell below 50% or at 72 hours of treatment, whichever came earlier, cell viability of each plate was measured via

[14] = BaF3, Ba/F3 GFP+IL3, MTT, 72 hours
[15] = BaF3, Ba/F3 FLT3 ITD/D835H, MTT, 72 hours
[16] = MOLM-13, MOLM13 + HS5-GFP co-culture, read-out: IC50 viability
[17] = MV4-11, FLT3-ITD, MTT, 72 hours
[18] = BaF3, Ba/F3 FLT3 D835Y, MTT, 72 hours
[19] = MOLM13-RES, FLT3-ITD/D835Y, MTT, 72 hours
[20] = MOLM-13, MOLM13, FLT3-ITD, MTT, 72 hours
[21] = BaF3, Ba/F3 FLT3 D835H, MTT, 72 hours
[22] = BaF3, Ba/F3 FLT3 ITD, MTT, 72 hours
[23] = BaF3, Ba/F3 FLT3 ITD/D835Y, MTT, 72 hours
[24] = MOLM-13, MOLM13 alone (co-culture experiment), read-out: IC50 viability
[25] = sample 240: FLT3-ITD, IDH2, NPM1, read-out: IC50 viability
[26] = sample 370: FLT3-ITD, IDH1, NPM1, SMARCA2, read-out: IC50 viability
[27] = sample 0762 (762): FLT3-ITD, NRAS, KRAS, DNMT3A, NPM1, D835E, read-out: IC50 viability
[28] = sample 1069: FLT3-ITD, SRSF2, IDH2, DNMT3A, read-out: IC50 viability
[29] = sample 1355: FLT3-ITD, NPM1, IDH2, read-out: IC50 viability

Compound	IC50 (Ba/F3 cells GFP+IL3; [14])	IC50 [5, 15]	IC50 (MOLM13 cells [3]; [16])	IC50 (MV4-11 cells [1]; [17])	IC50 [8, 18]	IC50 (MOLM13-RES cells; [19])	IC50 (MOLM13 cells [2]; [20])	IC50 [9, 21]	IC50 [10, 22]	IC50 [11]	IC50 [12, 23]	IC50 (MOLM13 cells [3]; [24])	IC50 [13]	IC50 (Ba/F3 cells GFP+IL3; BaF3, 72 h)	IC50 [4, 25]	IC50 [4, 26]	IC50 [4, 27]	IC50 [4, 28]	IC50 [4, 29]	other results
CC(C)(C)c1cc(NC(=O)Nc2ccc(-c3cn4c(n3)sc3cc(OCCN5CCOCC5)ccc34)cc2)no1 [Quizartinib, quizartinib]	–	–	–	–	–	–	–	–	–	–	–	–	–	> 10000 nM	–	–	–	–	–	IC50 (MV4-11 cells [1]; MV4-11, 72 h): 1.7 nM; IC50 (MOLM13-RES cells; 72 h): 400 nM; IC50 (MOLM13 cells [2]; MOLM-13, 72 h): 2.5 nM; IC50 (MOLM13 cells [3]; MOLM-13, read-out: IC50 viability, MOLM13 + HS5-GFP co-culture): 4.7 nM; IC50 ([4]; read-out: IC50 viability, sample 240: FLT3-ITD, IDH2, NPM1): 238 nM; IC50 ([4]; read-out: IC50 viability, sample 370: FLT3-ITD, IDH1, NPM1, SMARCA2): 375 nM; IC50 ([4]; read-out: IC50 viability, sample 0762 (762): FLT3-ITD, NRAS, KRAS, DNMT3A, NPM1, D835E): 357 nM; IC50 ([4]; read-out: IC50 viability, sample 1069: FLT3-ITD, SRSF2, IDH2, DNMT3A): 195 nM; IC50 ([4]; read-out: IC50 viability, sample 1355: FLT3-ITD, NPM1, IDH2): 400 nM
CO[C@@H]1[C@H](N(C)C(=O)c2ccccc2)C[C@H]2O[C@]1(C)n1c3ccccc3c3c4c(c5c6ccccc6n2c5c31)C(=O)NC4 [Midostaurin, midostaurin]	328 nM	28 nM	99 nM	–	–	–	–	–	–	–	–	–	–	–	–	–	–	–	–	IC50 ([4]; sample 036: FLT3 wild-type, NRAS, IDH2, NPM1, DNMT3A, read-out: IC50 viability): 334 nM; IC50 (MOLM13 cells [6]; MOLM-13, read-out: IC50 viability, MOLM13 + GM-CSF): 47.4 nM; IC50 (MOLM13 cells [6]; MOLM-13, read-out: IC50 viability, MOLM13, no cytokine): 18.9 nM; Colony formation with IL-3, GM-CSF, or FGF2 (MV4-11 cells [7]): fully or partially rescued
CNC(=O)c1cc(Oc2ccc(NC(=O)Nc3ccc(Cl)c(C(F)(F)F)c3)cc2)ccn1 [Sorafenib, sorafenib]	3850 nM	463 nM	70 nM	8 nM	233 nM	1790 nM	26 nM	76 nM	1.4 nM	1340 nM	3340 nM	14 nM	> 10000 nM	–	1480 nM	1030 nM	195 nM	357 nM	3530 nM	IC50 ([4]; sample 774: FLT3-ITD, CBL, IDH1, NPM1, read-out: IC50 viability): 659 nM
CC1(COc2ccc3c(c2)ncn3-c2ccc3cccc(N4CCC(N)CC4)c3n2)COC1 [Crenolanib, crenolanib]	773 nM	38 nM	20 nM	6.6 nM	0.068 nM	11 nM	7.4 nM	0.27 nM	1.8 nM	58 nM	35 nM	5 nM	3100 nM	–	90 nM	192 nM	547 nM	488 nM	305 nM	–
Cc1ccc(C(=O)Nc2ccc(CN3CCN(C)CC3)c(C(F)(F)F)c2)cc1C#Cc1cnc2cccnn12 [Ponatinib, ponatinib]	–	–	–	–	–	–	–	–	–	41.9 nM	–	–	–	920 nM	–	–	–	–	–	IC50 ([8]; BaF3, 72 h): 158 nM; IC50 ([9]; BaF3, 72 h): 89 nM; IC50 ([10]; BaF3, 72 h): 2.8 nM; IC50 ([12]; BaF3, 72 h): 106 nM; IC50 ([5]; BaF3, 72 h): 126 nM
